Measurements taken from patent US12293809B2, “Workflow for generating compounds with biological activity against a specific biological target” (INSILICO MEDICINE IP LIMITED, priority 2019, dated 2025).
Values joined by “and” are separate entries in the source; they are usually repeats but may differ in a detail not shown here. Identical values can stand only once. Like-named read-outs stand apart in the source and are kept apart here. Blank lines part the entries; values can stand above or below the compound they belong to.

Legend:
[1] = Mouse PK study, IV administration; assay type: in vivo; conditions: IV 10 mg/kg, M01-M03 individual
eEF-2K = molecular target: T1, eEF-2K (Homo sapiens, UniProt O00418); experiment: scanMAX Delta Kinase Panel (Eurofins), single concentration; assay type: biochemical; conditions: 10 μM; highest inhibition within the panel
T1 construct: purchased Eurofins 50-100KP10
Experimental: The issue of selectivity is of vital importance for a lead compound to estimate possible off-target effects that can influence the pre-clinical evaluation success. […] DDR1 kinase is mostly expressed in epithelial cells, whereas the expression of DDR2 is generally observed in […]. Even though that the prevention of fibrosis is the primary goal, the selectivity over DDR2 kinase is also a very important consideration.
The experimental procedures were performed by Eurofins. The activity of the molecules against hDDR1 and hDDR2 kinases was assessed using KinaseProfiler^67. The enzyme sample was incubated with 8 mM MOPS buffer (pH=7.0), 0.2 mM EDTA, […] target protein hDDR1 and hDDR2 kinases, 10 mM Magnesium acetate/Manganese chloride, respectively, and [γ-^33P]-ATP. The enzymatic reaction processed in the presence of Mg^2+ cations and ATP at room temperature for 40 minutes and terminated by addition of phosphoric acid. The reaction mixture (10 μL) was spotted onto a P30 filtermat and washed four times using 0.425% phosphoric acid and once with methanol. All the compounds were prepared in 100% DMSO. […] The biological evaluation of selectivity against non-target kinases was performed in Dundee Eurofins, using Scan Max Delta Panel [10 μM ATP] KinaseProfiler^68.

[2] = Mouse PK study, PO administration; assay type: in vivo
hDDR1 = hDDR1 (Homo sapiens, UniProt Q08345); experiment: Rescreen in another biochemical assay (Thermo Fisher-PR6913A); conditions: read-out: IC50 towards DDR1 kinase, rescreen
Experimental: In the present example, six molecules were generated, selected, and synthesized and were submitted for biological testing (e.g., within 35 days). […] Since the dose-response curves for Compounds 2 and 4 seemed likely inconsistent, additional experiments were performed to confirm the activity of these molecules towards DDR1 kinase (see FIG. 4B). […] Compounds 1 and 2 were also evaluated towards DDR2 kinase.
FIGS. 4A-4B show the structures and dose-response curves for the generated molecules. The six generated compounds were tested in a dose-dependent manner against DDR1 tyrosine kinase.

log D 7.4 = assay type: physicochemical; conditions: TFA salt
Experimental: (§1) Since Compound 2 contains an imidazolidine fragment typically unusual in drug discovery we experimentally assessed key properties for this molecule. […] The inhibition activity of Compounds 1 and 2 towards a small panel of key cytochrome P450 (CYP450) isoforms was also assessed in vitro (Table 2).

[3] = 10 μM
Experimental: Test compounds (at 10 μM) were incubated at 25° C. with 50 mM phosphate buffer, pH=7.4 and 8 mM MOPS pH 7.0, 0.2 mM EDTA, pH=7.0. Duplicate samples were used. […] Curcumin was used as positive control in this assay at neutral-basic condition. Samples were analyzed by LC/MS/MS, disappearance of test compound was assessed based on peak area ratios of analyte/IS (no standard curve).

pKa = assay type: physicochemical
Experimental: as §1

[4] = Microsomal stability (DLM); conditions: for Remaining (*NCF = 60 min) / Remaining (T = 60 min): 1 h
Experimental: Cold acetonitrile (ACN) including 100 ng/mL Tolbutamide and 100 ng/mL Labetalol as internal standard (IS) were used for stop solution. 10 μL compound or control working solution/well was added to all plates (T0, T5, T10, T20, T30, T60, NCF60) except matrix blank. Dispense 80 μL/well microsome solution was added to every plate by Apricot, the mixture of microsome solution and compound were incubated at 37° C. for about 10 min. After pre-warming, dispense 10 μL/well NADPH regenerating system was added to every plate by Apricot to start reaction. The solution was then incubated at 37° C. 300 (μL/well) stop solution (cold in 4° C.) was added to terminate the reaction. The sampling plates were shaken for approximately 10 min. Samples were centrifuged at 4000 rpm for 20 min under 4° C. While centrifuging, 8×new 96-well plate were loaded with 300 μL HPLC water, then 100 μL supernatant was transferred and mixed for LC/MS/MS.

[5] = tested on: α-actin (α-SMA) production in LX-2 cells; experiment: LX-2 fibrosis assay, TGF-β stimulated (Western blot); assay type: cell-based, human; conditions: 14 nM
Experimental: Collagen α1, α-SMA, CTGF and GAPDH were traced using Western blot analysis.
After 20 h growth in the reduced serum medium, the cells were treated with indicated doses of compounds for 30 minutes.

[6] = PO 15 mg/kg, M04-M06 individual, c4 Mean ± SD, 15 mg/kg, mean

Sequence of hDDR1 (Q08345 19-913): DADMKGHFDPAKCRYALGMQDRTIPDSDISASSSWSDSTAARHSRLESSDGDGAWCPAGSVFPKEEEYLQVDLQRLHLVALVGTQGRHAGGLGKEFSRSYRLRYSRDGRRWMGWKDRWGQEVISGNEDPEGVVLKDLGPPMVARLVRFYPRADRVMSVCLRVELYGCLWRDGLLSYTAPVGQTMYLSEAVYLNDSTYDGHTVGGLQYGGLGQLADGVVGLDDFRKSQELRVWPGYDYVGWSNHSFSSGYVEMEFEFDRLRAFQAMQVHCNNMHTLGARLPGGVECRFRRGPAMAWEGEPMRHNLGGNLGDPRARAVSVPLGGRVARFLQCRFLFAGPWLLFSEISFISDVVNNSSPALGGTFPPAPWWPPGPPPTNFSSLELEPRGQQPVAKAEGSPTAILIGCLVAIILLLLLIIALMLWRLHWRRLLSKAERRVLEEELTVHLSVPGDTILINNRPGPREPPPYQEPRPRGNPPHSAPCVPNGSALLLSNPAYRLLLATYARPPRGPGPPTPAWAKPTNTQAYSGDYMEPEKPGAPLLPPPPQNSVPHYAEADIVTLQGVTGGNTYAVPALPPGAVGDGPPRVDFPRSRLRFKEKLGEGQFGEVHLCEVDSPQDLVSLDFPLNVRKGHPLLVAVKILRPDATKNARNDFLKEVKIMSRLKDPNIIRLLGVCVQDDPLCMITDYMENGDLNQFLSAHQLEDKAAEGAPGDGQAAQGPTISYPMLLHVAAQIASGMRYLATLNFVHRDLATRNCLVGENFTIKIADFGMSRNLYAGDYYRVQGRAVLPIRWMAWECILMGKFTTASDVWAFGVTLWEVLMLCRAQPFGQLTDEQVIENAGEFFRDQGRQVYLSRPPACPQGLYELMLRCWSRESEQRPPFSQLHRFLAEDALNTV

Tlast ([1]; c4 Mean): 24.0 ± — h | AUC0-inf ([1]; c4 Mean ± SD): 6888 ± 359 ng·h/mL | AUC0-last ([1]; c4 Mean ± SD): 6830 ± 349 ng·h/mL | AUCExtra ([1]; c4 Mean ± SD): 0.845 ± 0.104% | AUMCExtra ([1]; c4 Mean ± SD): 5.42 ± 0.663% | C0 ([1]; c4 Mean ± SD): 2598 ± 572 ng/mL | Cl ([1]; c4 Mean ± SD): 19.1 ± 0.970 mL/min/kg | MRT0-inf ([1]; c4 Mean ± SD): 4.56 ± 0.193 h | MRT0-last ([1]; c4 Mean ± SD): 4.35 ± 0.187 h | T1/2 ([1]; c4 Mean ± SD): 3.65 ± 0.123 h | Vdss ([1]; c4 Mean ± SD): 5.21 ± 0.349 L/kg | INH % (eEF-2K): 37% | Bioavailability ([2]; PO 15 mg/kg vs IV 10 mg/kg, calculated using AUC0-inf): 17.8 ± — % | AUC0-inf [2, 6]: 1911 ± 94.3 ng·h/mL | AUC0-last [2, 6]: 1896 ± 93.7 ng·h/mL | AUCExtra [2, 6]: 0.787 ± 0.278% | AUMCExtra [2, 6]: 4.01 ± 1.60% | Cmax [2, 6]: 276 ± 75.4 ng/mL | MRT0-inf [2, 6]: 5.73 ± 0.999 h | MRT0-last [2, 6]: 5.54 ± 1.000 h | T1/2 [2, 6]: 3.29 ± 0.278 h | Tmax [2, 6]: 2.33 ± 1.53 h | Tlast ([2]; PO 15 mg/kg, M04-M06 individual, c4 Mean, 15 mg/kg, mean): 24.0 ± — h
SMILES: Cc1ccc2c(Nc3cccc(C(F)(F)F)c3)noc2c1C#Cc1cnc2cccnn12 [Compound 1]

SMILES: O=C(Nc1cccc(C(=O)N2CCN(c3ccnc4[nH]ccc34)C2)c1)c1cccc(C(F)(F)F)c1 [Compound 2]
IC50 (hDDR1): 37 nM and 37.1 nM | log D 7.4 (log D 7.4): 4.07 | % Remain ([3]; 8 mM MOPS pH 7.0, 0.2 mM EDTA, pH 7.0, 0 min): 100.00% | % Remain ([3]; 8 mM MOPS pH 7.0, 0.2 mM EDTA, pH 7.0, 120 min): 101.41% | % Remain ([3]; 8 mM MOPS pH 7.0, 0.2 mM EDTA, pH 7.0, 240 min): 103.81% | % Remain ([3]; 8 mM MOPS pH 7.0, 0.2 mM EDTA, pH 7.0, 360 min): 106.18% | % Remain ([3]; 8 mM MOPS pH 7.0, 0.2 mM EDTA, pH 7.0, 1440 min): 105.37% | % Remain ([3]; 50 mM phosphate buffer, pH 7.4, 0 min): 100.00% | % Remain ([3]; 50 mM phosphate buffer, pH 7.4, 120 min): 100.65% | % Remain ([3]; 50 mM phosphate buffer, pH 7.4, 240 min): 97.05% | % Remain ([3]; 50 mM phosphate buffer, pH 7.4, 360 min): 100.07% | % Remain ([3]; 50 mM phosphate buffer, pH 7.4, 1440 min): 107.23% | pKa (pKa): 6.99 | CLint(mic) ([4]; DLM 0.5): 162.6 | CLint(mic) ([4]; HLM 0.5): 108.2 | T1/2 ([4]; dog, microsomes): 0.142 h | Remaining (*NCF = 60 min) ([4]; dog, microsomes): 99.9% | Remaining (T = 60 min) ([4]; dog, microsomes): 0.6% | T1/2 ([4]; human, microsomes): 0.213 h | Remaining (*NCF = 60 min) ([4]; human, microsomes): 88.7% | Remaining (T = 60 min) ([4]; human, microsomes): 2.8% | CLint(mic) ([4]; rat, microsomes): 80.6 | T1/2 ([4]; rat, microsomes): 0.287 h | Remaining (*NCF = 60 min) ([4]; rat, microsomes): 88.3% | Remaining (T = 60 min) ([4]; rat, microsomes): 7.1% | inhibition of α-SMA [5]: 15%
